Here are results for 58 compounds from US20230115176A1 (Ra Pharmaceuticals, Inc., priority 2019, published 2023).

As a reminder, the Kd is a measure of binding affinity in units of concentration. The IC50 is the concentration that inhibits the measured activity by half.

Structures are written as SMILES.

Experiment [1] deals with human C5 complement protein (Homo sapiens, UniProt P01031). Briefly: Surface plasmon resonance (SPR), immobilized human C5, 37° C. (Example 12, Table 21). The class given is binding. To be noted: where a range of compound concentrations were analyzed, the lowest value obtained. The source says: (§1) Compound CU0136 is a racemic mixture of Compound CU0186 and CU0187. Numbers in parenthesis following compound numbers indicate alternate enantiomers (as distinguished by retention time during chromatographical separation).

The target in experiment [2] is T1, Human C5 (Homo sapiens, UniProt P01031).
T1 construct: purchased Complement Technology
Briefly: Red blood cell (RBC) hemolysis assay, luminescent (Example 13, Table 22). Also: 1.5% C5-depleted human serum. The class given is cell-based. To be noted: sheep EA cells, […] C5-depleted human serum, 0.5 nM human C5, 1 hour 37° C., luminescence.
From the text: as §1

The target in experiment [3] is T1, Human C5. Briefly: Surface plasmon resonance (SPR), compounds on immobilized human C5 (Example 2, Table 5). The class given is binding. To be noted: lowest value where a range of compound concentrations were analyzed.
Protocol: Surface plasmon resonance (SPR) technology was used to evaluate affinity, specificity, and kinetics of interactions between compounds and complement protein C5 in real time without the need for labeling.
SensiQ FE SPR system (SensiQ Technologies, Oklahoma City, Okla.) was used to provide sensitive and accurate detection of binding of small molecules to the very large C5 protein (MW=195,000 Da). The chip was prepared by preconditioning the sensor according to the protocol of the SensiQ FE using 10 mM HCl, 50 mM NAOH and 0.1% SDS. The sensor chip was activated by using a mixture of fresh EDAC (1-ethyl-3-(-3-dimethylaminopropyl) carbodiimide) (Sigma Co., St. Louis, Mo.) and NHS (N-hydroxy succinimide) (Sigma Co., St. Louis, Mo.). Human C5 was surface immobilized to a Pioneer Biosensor chip via random amine coupling (>12,000 RU) which makes use of the N-terminus and ε-amino groups of lysine residues of the protein ligand. Immobilization was done by injecting 30-40 μg/ml C5 in 10 mM NaAc pH 4.5 onto designated channels at a rate of 10 μL/minute for 12 minutes, targeting RL>12000 RU for small molecules.
Compounds were diluted in DMSO in a format of 100-fold final concentration and 3-fold serial dilution (5 or 6 dilutions). The 100-fold compounds were transferred to one-fold DMSO-free assay buffer in the 96-well test plate. The compound solution was injected at a rate of 60 μL/minute for 30-60 seconds, followed by 60-90 seconds dissociation time, buffer flushing and/or priming. Blank solution (1% DMSO assay buffer) was run for every 6 injections of compounds. Double reference by subtracting both blank channel and reference channel was applied for data processing. Titration of C5 binding compounds to the C5-immobilized biosensor chip surface led to interactions between C5 and potential binders, and the resulting changes of surface refractive index were sensitively measured by the system.
SPR data were analyzed with the managing software provided by SensiQ and equilibrium dissociation constant (KD) values were determined for each compound. Where a range of compound concentrations were analyzed, the lowest value obtained is presented.
The next experiment concerns the target purified human C5 (Homo sapiens, UniProt P01031). Briefly: Red blood cell hemolysis assay, optical, absorbance 412 nm (Example 3, Table 6). The class given is cell-based. To be noted: antibody-sensitized sheep erythrocytes, 1.5% human C5 depleted sera, 0.5 nM human C5; average where replicates.

T1 sequence (P01031 19-1676): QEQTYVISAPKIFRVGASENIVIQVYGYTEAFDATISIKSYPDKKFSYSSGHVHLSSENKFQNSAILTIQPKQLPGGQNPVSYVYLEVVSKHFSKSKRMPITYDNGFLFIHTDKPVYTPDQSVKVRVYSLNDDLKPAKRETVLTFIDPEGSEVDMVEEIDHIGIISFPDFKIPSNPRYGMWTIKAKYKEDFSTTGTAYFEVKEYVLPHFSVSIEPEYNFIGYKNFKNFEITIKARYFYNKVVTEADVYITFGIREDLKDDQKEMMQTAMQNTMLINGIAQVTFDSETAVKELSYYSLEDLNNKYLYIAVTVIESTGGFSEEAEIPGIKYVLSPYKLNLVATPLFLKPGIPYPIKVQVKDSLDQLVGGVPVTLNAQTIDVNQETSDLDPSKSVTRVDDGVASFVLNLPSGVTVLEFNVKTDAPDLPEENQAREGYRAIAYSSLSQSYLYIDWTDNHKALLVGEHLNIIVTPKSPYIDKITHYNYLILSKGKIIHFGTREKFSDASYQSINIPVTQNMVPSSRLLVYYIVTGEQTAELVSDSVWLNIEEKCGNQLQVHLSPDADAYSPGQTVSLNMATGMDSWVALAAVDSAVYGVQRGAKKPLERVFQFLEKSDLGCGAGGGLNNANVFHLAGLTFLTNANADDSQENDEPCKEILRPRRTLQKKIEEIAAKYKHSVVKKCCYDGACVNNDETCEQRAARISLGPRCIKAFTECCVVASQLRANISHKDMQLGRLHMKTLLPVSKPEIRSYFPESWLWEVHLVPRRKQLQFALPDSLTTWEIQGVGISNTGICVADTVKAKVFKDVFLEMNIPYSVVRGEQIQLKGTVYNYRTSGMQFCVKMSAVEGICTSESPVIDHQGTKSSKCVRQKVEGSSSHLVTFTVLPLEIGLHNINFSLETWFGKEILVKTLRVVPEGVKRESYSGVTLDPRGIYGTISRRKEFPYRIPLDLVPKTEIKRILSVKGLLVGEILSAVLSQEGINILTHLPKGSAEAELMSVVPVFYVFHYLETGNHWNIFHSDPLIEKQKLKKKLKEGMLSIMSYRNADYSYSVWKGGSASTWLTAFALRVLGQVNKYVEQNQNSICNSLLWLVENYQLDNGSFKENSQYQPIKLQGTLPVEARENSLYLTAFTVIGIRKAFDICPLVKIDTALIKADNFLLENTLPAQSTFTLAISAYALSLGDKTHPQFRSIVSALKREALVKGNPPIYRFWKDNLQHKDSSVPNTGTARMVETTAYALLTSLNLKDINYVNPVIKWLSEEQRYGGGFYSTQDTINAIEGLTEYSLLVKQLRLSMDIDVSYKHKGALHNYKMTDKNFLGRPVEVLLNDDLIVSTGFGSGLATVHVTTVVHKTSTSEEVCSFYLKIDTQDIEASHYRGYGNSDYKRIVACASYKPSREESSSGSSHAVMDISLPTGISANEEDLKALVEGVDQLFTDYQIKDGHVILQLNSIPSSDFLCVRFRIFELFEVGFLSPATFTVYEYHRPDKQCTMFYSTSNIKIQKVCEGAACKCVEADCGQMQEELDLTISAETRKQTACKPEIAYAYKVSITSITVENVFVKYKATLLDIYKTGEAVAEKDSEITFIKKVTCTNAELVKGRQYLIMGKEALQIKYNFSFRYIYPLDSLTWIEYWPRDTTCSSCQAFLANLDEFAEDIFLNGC
Chain of human C5 complement protein (P01031 19-1676): as above
Chain of purified human C5 (P01031 19-1676): as above
Protocol for purified human C5: Experiments were carried out using a red blood cell (RBC) hemolysis assay to assess compound inhibition of RBC lysis. […] The assay was carried out using 1.5% human C5 depleted sera and 0.5 nM purified human C5.
GVB++ buffer (Complement Technology, Tyler, Tex.) was heated at 37° C. for a minimum of 20 minutes. The human C5 depleted sera and purified human C5 were rapidly thawed at 37° C. and then stored on ice or wet ice, respectively. The compound stock (10 mM, DMSO) was serially diluted in 100% DMSO to obtain ten 6-fold dilutions before addition of GVB++. Sera dilution was prepared by adding 5 mL of GVB++ to a 15 mL conical tube, removing 600 μL of the GVB++ and adding 600 μL of the 100% sera. The tube was mixed by inverting three times. A volume of 25 μL of the diluted sera was added to each well so that the final concentration of sera in the well was 1.5%. C5 dilution was prepared by adding 5 mL of GVB++ to a 15 mL conical tube, removing 4 μL of the GVB++ and adding 4 μL of the C5 stock. The tube was mixed by inverting three times. A volume of 25 μL was added to each well so that the final amount of C5 was 0.5 nM in each well. The antibody-sensitized sheep erythrocytes (EAs) were centrifuged at 1,000× gravity at 22° C. for 3 minutes. The supernatant was pipetted off without disrupting the pellet. The pellet was then resuspended in GVB++ with the same volume removed. Resuspended EAs were mixed by gently inverting the tube.
Five controls were run on each plate: (1) EAs only=100 μL EAs+50 μL GVB++ with 4% DMSO+50 μL GVB++; (2) EA+Sera=100 μL EAs+50 μL GVB++ with 4% DMSO+25 μL Sera dilution+25 μL GVB++; (3) EA+C5=100 μL EAs+50 μL GVB++ with 4% DMSO+25 μL C5 dilution+25 μL GVB++; (4) EA+Sera+C5=100 μL EAs+50 μL GVB++ with 4% DMSO+25 μL Sera dilution+25 μL C5; (5) GVB++ Only=200 μL GVB++. Other wells included: GVB++ with 4% DMSO=20 μL DMSO+480 μL GVB++. All samples were analyzed in duplicate. The compound dose response curve was generated using samples prepared with 100 μL EA+50 μL compound dilution+25 μL C5 dilution+25 μL sera dilution.
Test plates were prepared by adding 100 μL of EAs, 50 μL of compound dilution, 25 μL of sera dilution, and 25 μL of C5 dilution to individual wells of a 96-well tissue culture-treated clear microtitre plate (USA Scientific, Ocala, Fla.) and resuspending by pipetting up and down three times. The samples were incubated at 37° C. for one hour. At the completion of the incubation, the plates were centrifuged at 1,000× gravity for 3 minutes. 100 μl of supernatant were transferred to a new plate and the absorbance was read at 412 nm. Data was fit with a log-logit formula producing a dose-response curve and IC50.
“IC50” refers to the half maximal inhibitory concentration, where the value is the concentration of the inhibitor needed to reduce red blood cell hemolysis by half. Where replicate analysis was conducted, average IC50 values are provided along with standard deviation (SD) values.

Take `CCCCCOc1cc(N2CCN(Cc3cc(F)ccc3Cl)C2=O)ccc1OC` [CU0013]: in experiment [1], binding was put at a Kd of 454 nM. In addition, on Human C5 [2], the concentration for half-maximal inhibition (IC50) turned out to be 602 nM.
Taken in the same sequence, the figures for `CCCCCOc1cc(N2CCCN(Cc3ccnc4c3ccn4C3CCN(C)C3=O)C2=O)ccc1OC` (single isomer, unassigned) [CU0039(2)] were 6.5 nM and 30.1 nM.
Taken in the same sequence, the figures for `CCCCCOc1cc(N2CCCN(Cc3ccnc4c3ccn4CC(=O)N3CCN(C)C(=O)C3)C2=O)ccc1OC` [CU0060] were 14 nM and 40.3 nM.
The like results for `CCCCCOc1cc(N2CCCN(Cc3ccc(Cc4nnco4)cc3OC)C2=O)ccc1OC` [CU0120] were, in that order, 3.6 nM and 11.8 nM.
Compound `CCCCCOc1cc(N2CCCN(Cc3cccc4c3ccn4CC3(O)CCNCC3)C2=O)ccc1OC` [CU0021] showed a dissociation constant Kd in experiment [1] of 1.5 nM. Besides, at Human C5 [2], it took 14.5 nM to reach half-maximal inhibition (IC50).
Taken in the same sequence, the figures for `CCCCCOc1cc(N2CCCN([C@@H](C)c3ccnc4c3ccn4CC(=O)N3CCOCC3)C2=O)ccc1OC` [CU0045] were 26 nM and 32.8 nM.
The like results for `CCCCCOc1cc(N2CCCN(Cc3cccc4c3ccn4C3CCN(C)C3=O)C2=O)ccc1OC` (stereo not shown) [CU0020] were, in that order, 3 nM and 17.2 nM.
Taken in the same sequence, the figures for `CCCCCOc1cc(N2CCN(Cc3ccnc4c3ccn4CC(=O)N(C)C)C2=O)ccc1OC` [CU0033] were 62 nM and 136 nM.
In the case of `CCCCCOc1cc(N2CCCN(Cc3cccc(-c4cnn(C5CCN(C)CC5)c4)c3F)C2=O)ccc1OC` [CU0127], binding in experiment [1] was put at a Kd of 9.5 nM. For the same compound, the midpoint of inhibition on Human C5 [2], the IC50, lay at 30.2 nM.
For the compound `CCCCCOc1cc(N2CCN(Cc3cccc(F)c3Cl)C2=O)ccc1OC` [CU0011], the affinity in experiment [1], expressed as Kd, was 816 nM. Also, on Human C5 [2], the 50% inhibitory concentration (IC50) was 886 nM.
Taken in the same sequence, the figures for `CCCCCOc1cc(N2CCCN(Cc3ccnc4c3ccn4CC(=O)N3CCOCC3)C2=O)ccc1C1CC1` [CU0044] were 35.5 nM and 87.7 nM.
Taken in the same sequence, the figures for `CCCCCOc1cc(N2CCCN(Cc3ccc(CCN(CC)CC)cc3OC)C2=O)ccc1OC` [CU0122] were 9.6 nM and 17.1 nM.
The like results for `CCCCCOc1cc(N2CCCN(Cc3cccc4c3ccn4CC(=O)N3CCOCC3)C2=O)ccc1OC` [CU0029] were, in that order, 2.1 nM and 15 nM.
In experiment [1], `CCCCCOc1cc(N2CCCN(Cc3ccnc4c3ccn4CC(=O)N3CCOC(CN(C)C)C3)C2=O)ccc1OC` (stereo not shown) [CU0050] yielded a Kd of 9 nM. Further, half-maximal inhibition at Human C5 [2] (IC50) required 18 nM.
Compound `CCCCCOc1cc(N2CCCN(Cc3ccnc4[nH]ccc34)C2=O)ccc1OC` [CU0032] registered a dissociation constant Kd in experiment [1] of 47.5 nM. The compound further registered a concentration for half-maximal inhibition (IC50) at Human C5 [2] of 51.8 nM.
The like results for `CCCCCOc1cc(N2CCCN(Cc3cccc4c3ccn4CC(=O)N3CCCC3)C2=O)ccc1OC` [CU0235] were, in that order, 3.8 nM and 29.4 nM.
On to `CCCCCOc1cc(N2CCCN(Cc3cccc4c3ncn4CC(=O)N3CCN(C(C)=O)CC3)C2=O)ccc1OC` [CU0063], for which binding in experiment [1] was characterised by a dissociation constant (Kd) of 10.5 nM. The compound also returned an IC50 at Human C5 [2] of 28.3 nM.
Taken in the same sequence, the figures for `CCCCCOc1cc(N2CCCN(Cc3ccnc4c3ccn4CC(=O)N3CCOC(CCO)C3)C2=O)ccc1OC` (stereo not shown) [CU0046] were 15.5 nM and 38.9 nM.
In turn, `CCCCCOc1cc(N2CCN(Cc3ccnc4c3ccn4CC(=O)N3CCOCC3)C2=O)ccc1OC` [CU0042] displayed a Kd in experiment [1] of 106 nM. This compound displayed a concentration for half-maximal inhibition (IC50) on Human C5 [2] of 63.1 nM.
Taken in the same sequence, the figures for `CCCCCOc1cc(N2CCCN(Cc3ccnc4c3ccn4CC(=O)N3CC(=O)N(C)C(C)C3)C2=O)ccc1OC` (stereo not shown) [CU0062] were 17.5 nM and 33.4 nM.
The like results for `CCCCCOc1cc(N2CCCN([C@@H](C)c3ccnc4c3ccn4CC(=O)N3CCCOCC3)C2=O)ccc1OC` [CU0055] were, in that order, 10.5 nM and 31.2 nM.
As to `COc1ccc(NC(=O)NCc2cccnc2)cc1OCCCC(C)C` [SM0049], the Kd on Human C5 [3] was 4100 nM. Besides, the 50% inhibitory concentration (IC50) at purified human C5 was found to be 2790 nM.
At Human C5 [3], `COc1ccc(NC(=O)NCc2ccccc2C#N)cc1OCCCC(C)C` [SM0067] registered a Kd of 172 nM. Besides, on purified human C5, the 50% inhibitory concentration (IC50) came to 7360 nM.
Taken in the same sequence, the figures for `COc1ccc([C@H](CO)NC(=O)Nc2ccc(OC)c(OCCCC(C)C)c2)cc1` [SM0008] were 45 nM and 176 nM.
The like results for `COc1ccc(NC(=O)NCc2cccc(O)c2)cc1OCCCC(C)C` [SM0016] were, in that order, 290 nM and 378 nM.
The like results for `COc1ccc(NC(=O)N(C)Cc2ccccc2)cc1OCCCC(C)C` [SM0021] were, in that order, 368 nM and 533 nM.
`CC(C)CCCOc1cc(NC(=O)N[C@@H](CO)c2ccccc2)ccc1F` [SM0075] yielded a Kd at Human C5 [3] of 1300 nM. Also, the 50% inhibitory concentration (IC50) on purified human C5 was determined as 11500 nM.
Taken in the same sequence, the figures for `COc1ccc(NC(=O)N[C@@H](CO)c2ccccc2)cc1CCCCC(C)C` [SM0010] were 107 nM and 226 nM.
`COc1ccc(NC(=O)N[C@@H](CO)c2ccccc2)cc1OCCOC1CCC1` [SM0053]: on Human C5 [3], the Kd was found to be 3350 nM. Moreover, the IC50 at purified human C5 amounted to 3380 nM.
Taken in the same sequence, the figures for `COc1ccc(NC(=O)NC(CO)c2ccccc2F)cc1CCCCC(C)C` (stereo not shown) [SM0029] were 239 nM and 901 nM.
The like results for `COc1ccc(NC(=O)N[C@@H](COC(N)=O)c2ccccc2)cc1OCCCC(C)C` [SM0068, (R)-2-(3-(4-methoxy-3-((4-methylpentyl)oxyureido)-2-phenylethyl carbamate] were, in that order, 2600 nM and 7360 nM.
Taken in the same sequence, the figures for `COc1ccc(NC(=O)N[C@@H](CO)c2ccccc2)cc1OCCOC(C)C` [SM0083] were 6400 nM and 15400 nM.
Compound `COc1ccc(NC(=O)NCc2ccccc2F)cc1OCCCC(C)C` [SM0058] yielded a Kd on Human C5 [3] of 500 nM. In addition, at purified human C5, the IC50 is 4090 nM.
Taken in the same sequence, the figures for `COc1cccc(CNC(=O)Nc2ccc(OC)c(OCCCC(C)C)c2)c1` [SM0047] were 830 nM and 2270 nM.
The like results for `COc1ccc(NC(=O)NCc2ccc3nccn3c2)cc1OCCCC(C)C` [SM0065] were, in that order, 1600 nM and 6670 nM.
The like results for `COc1ccc(NC(=O)N2CCC[C@H]2c2ccccc2)cc1OCCCC(C)C` [SM0027] were, in that order, 171 nM and 697 nM.
As to `COc1ccc(NC(=O)NCc2ccnc3[nH]ccc23)cc1OCCCC(C)C` [SM0013], binding on Human C5 [3] was put at a Kd of 17 nM. Further, the IC50 at purified human C5 turned out to be 327 nM.
The compound `COc1ccc(NC(=O)NCc2ccccc2O)cc1OCCCC(C)C` [SM0004] gave an equilibrium dissociation constant (Kd) on Human C5 [3] of 28 nM. The 50% inhibitory concentration (IC50) on purified human C5 turned out to be 42.6 nM.
Taken in the same sequence, the figures for `COc1ccc(NC(=O)NCC(O)c2ccccc2)cc1OCCCC(C)C` (stereo not shown) [SM0081] were 1600 nM and 13000 nM.
Taken in the same sequence, the figures for `COCCCOc1cc(NC(=O)N[C@@H](CO)c2ccccc2)ccc1OC` [SM0084] were 310 nM and 16100 nM.
The like results for `COc1ccc(NC(=O)NCc2cscn2)cc1OCCCC(C)C` [SM0059] were, in that order, 113 nM and 4390 nM.
`COc1ccc(NC(=O)NCc2cccs2)cc1OCCCC(C)C` [SM0052] came in with a dissociation constant (Kd) at Human C5 [3] of 564 nM. The IC50 on purified human C5 was determined as 3100 nM.
Taken in the same sequence, the figures for `COc1ccc(NC(=O)NCc2ccc(O)cc2)cc1OCCCC(C)C` [SM0017] were 111 nM and 401 nM.
In the case of `COc1ccc(NC(=O)NCC(O)c2ccccn2)cc1OCCCC(C)C` (stereo not shown) [SM0078], the equilibrium dissociation constant (Kd) on Human C5 [3] came out at 3600 nM. Also, the IC50 at purified human C5 came to 12600 nM.
The compound `CCCCCc1cccc(NC(=O)N[C@@H](CO)c2ccccc2)c1` [SM0087] gave a dissociation constant (Kd) on Human C5 [3] of 9900 nM. For the same compound, the half-maximal inhibitory concentration (IC50) on purified human C5 amounted to 16700 nM.
The like results for `COc1ccc(NC(=O)NC(CO)c2ccccc2F)cc1OCCCC(C)C` (stereo not shown) [SM0024] were, in that order, 130 nM and 614 nM.
Taken in the same sequence, the figures for `COc1ccc(NC(=O)NC(CO)c2ccco2)cc1OCCCC(C)C` (stereo not shown) [SM0032] were 25 nM and 1040 nM.
The like results for `COc1ccc(NC(=O)NCC(O)c2ccc(O)cc2)cc1OCCCC(C)C` (stereo not shown) [SM0074] were, in that order, 3600 nM and 9360 nM.
Turning to `C=C(NC(=O)Nc1ccc(OC)c(OCCCC(C)C)c1)c1ccccc1` [SM0061], the affinity on Human C5 [3], expressed as Kd, was 3900 nM. The 50% inhibitory concentration (IC50) on purified human C5 was 4990 nM.
The like results for `COc1ccc(NC(=O)N[C@@H](CO)c2ccccc2)cc1OCCCCCC(C)C` [SM0033] were, in that order, 410 nM and 1100 nM.
Taken in the same sequence, the figures for `COc1ccc(NC(=O)NCc2ccccc2CO)cc1OCCCC(C)C` [SM0050] were 102 nM and 2870 nM.
In experiment [1], `CCCCCOc1cc(N2CCCN(Cc3ccc(CC(=O)N4CCNC(=O)C4)cc3OC)C2=O)ccc1OC` [CU0101] returned a dissociation constant (Kd) of 2.4 nM.
`COc1ccc(NC(=O)NCc2cccc(CN(C)C)c2)cc1OCCCC(C)C` [SM0063] returned a Kd on Human C5 [3] of 6370 nM. Also, the IC50 at purified human C5 was 6140 nM.
In the case of `COc1ccc(NC(=O)NC(CCO)c2ccccc2)cc1OCCCC(C)C` (stereo not shown) [SM0064], the Kd at Human C5 [3] stood at 6610 nM. The IC50 at purified human C5 stood at 6450 nM.
The like results for `COc1ccc(NC(=O)NCc2ccc(O)c(O)c2)cc1OCCCC(C)C` [SM0015] were, in that order, 196 nM and 342 nM.
Taken in the same sequence, the figures for `COc1ccc(NC(=O)NCc2ccc(CN(C)C)cc2)cc1OCCCC(C)C` [SM0043] were 1930 nM and 2140 nM.
The like results for `CC(C)CCCOc1cccc(NC(=O)N[C@@H](CO)c2ccccc2)c1` [SM0070, 1-[(1R)-2-hydroxy-1-phenyl-ethyl]-3-(3-isohexyloxyphenyl)urea] were, in that order, 4800 nM and 8600 nM.
The compound `COc1ccc(NC(=O)NCc2ccccc2OC)cc1CCCCC(C)C` [SM0007] returned a Kd on Human C5 [3] of 90 nM. Also, the half-inhibitory concentration (IC50) at purified human C5 was found to be 165 nM.
